Square brackets hold non-standard residues; d marks the D form. Peptide text beside a SMILES is read from it. * marks the point of attachment. Benzoyl(4-guanidino) = N=C(N)Nc1ccc(C(=O)*)cc1; Oic = O=C(O)[C@@H]1C[C@@H]2CCCC[C@@H]2N1; Hyp = O=C(O)[C@@H]1C[C@@H](O)CN1; dTic = O=C(O)[C@H]1Cc2ccccc2CN1; 2Thi = N[C@@H](Cc1cccs1)C(=O)O
Target: T1, B2 bradykinin receptor (Homo sapiens, UniProt P30411)
T1 sequence (P30411 whole entry): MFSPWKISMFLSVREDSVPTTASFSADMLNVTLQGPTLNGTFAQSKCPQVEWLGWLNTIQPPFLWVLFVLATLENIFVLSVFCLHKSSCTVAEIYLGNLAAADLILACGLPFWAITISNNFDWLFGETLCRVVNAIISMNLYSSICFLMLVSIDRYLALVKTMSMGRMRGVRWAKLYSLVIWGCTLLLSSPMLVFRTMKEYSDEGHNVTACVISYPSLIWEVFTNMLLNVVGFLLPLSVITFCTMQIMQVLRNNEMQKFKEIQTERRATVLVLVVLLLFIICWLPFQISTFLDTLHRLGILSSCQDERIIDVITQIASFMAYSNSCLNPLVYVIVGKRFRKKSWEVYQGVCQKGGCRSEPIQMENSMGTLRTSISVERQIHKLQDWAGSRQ
Experiment: Antagonist effect against bradykinin B2 receptor was determined in rabbit jugular vein
Assay type: functional, tissue-based, Oryctolagus cuniculus
Settings: target entry is the homologue from another species; read-out: pA2 (converted)

N=C(N)NCCC[C@H](NC(=O)[C@@H]1C[C@@H]2CCCC[C@@H]2N1C(=O)[C@H]1Cc2ccccc2CN1C(=O)[C@H](CO)NC(=O)[C@H](Cc1cccs1)NC(=O)CNC(=O)[C@@H]1C[C@@H](O)CN1C(=O)[C@@H]1CCCN1C(=O)[C@H](CCCNC(=N)N)NC(=O)c1ccc(NC(=N)N)cc1)C(=O)O ({Benzoyl(4-guanidino)}-RP[Hyp]G[2Thi]S[dTic][Oic]R-OH)
Kb: 0.263 nM
